Our source for the IC50 values is patent US11098026B2, “Fused bicyclic compounds, compositions and applications thereof” (IMPETIS BIOSCIENCES LIMITED, priority 2017, dated 2021).

What is called IC50 is the concentration that inhibits the measured activity by half.

For the assay, the target named is T1, human GPR91 receptor (Homo sapiens, UniProt Q9BXA5).
T1 construct: expressed in transfected cells; host or cells: CHO-K1 NFAT cells
T1 sequence (Q9BXA5 1-334): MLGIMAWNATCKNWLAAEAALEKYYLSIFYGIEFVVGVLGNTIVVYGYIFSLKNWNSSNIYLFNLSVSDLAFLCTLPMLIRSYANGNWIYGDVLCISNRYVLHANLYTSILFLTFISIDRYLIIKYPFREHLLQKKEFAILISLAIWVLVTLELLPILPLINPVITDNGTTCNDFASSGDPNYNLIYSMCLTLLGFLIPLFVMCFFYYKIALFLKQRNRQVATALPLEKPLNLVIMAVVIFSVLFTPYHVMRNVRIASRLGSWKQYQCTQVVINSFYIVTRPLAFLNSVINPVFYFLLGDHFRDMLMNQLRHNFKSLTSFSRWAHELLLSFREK
Briefly: Human GPR91 calcium mobilization assay. It counts as cell-based. The note with it: CHO-K1 NFAT cells over expressing human GPR91 receptor; Fluo4 AM; agonist sodium succinate; flex station; read-out: hGPR91 IC50 (μM)*. As for the experimental part: Human GPR91 Calcium Mobilization Assay
To determine IC50 in CHO NFAT cells over expressing human GPR91 receptor calcium mobilization assay in flex station mode was carried out.
Grow CHO-K1 NFAT cells over expressing human GPR91 receptors in alpha MEM media were supplemented with 10% FBS (heat inactivated), 0.5 mg/ml of G-418, 0.5 mg/ml of Zeocin and 0.6 mg/ml of Hygromycin B.
The cells were seeded at least 21 hours before the experiment at the density of 25000/well in 96 well plate (Corning cat #no. 3603). It was made sure that cells were at least 95% confluent on the day of assay. No antibiotics were used for seeding purpose.
On the day of assay the media was discarded from plates and plates were washed with 100 μl of HBSS assay buffer. The plates were loaded with Fluo4 AM at 2 μM concentration. Pluronic F-127 dye was solubilized in calcium assay buffer containing 0.1% BSA, i.e., 20 μl dye+20 μl Pluronic F127 for 10 ml. Appropriate amounts of 100× probenecid was added to the loading mixture 1× final (100 μl per 10 ml). Total volume of dye loaded was made 100 μl. The plate was then wrapped in aluminium foil to protect from light and were incubated for 90 mins at 37 degrees in cell culture incubator. At the end of incubation the plates was washed again with 100 μl of HBSS buffer without BSA and 75 μl of HBSS buffer was added (without BSA) to the plate.
Further, 8 point-Dose response curve of the compounds of the present disclosure was prepared in 100% DMSO followed by 57.14-fold dilution to 1.75× in 1.75% DMSO in assay buffer. 100 μL of 1.75×NCE was added to the wells as shown below and incubated at room temp on orbital shaker at 300 rpm for 15 min. Flexstation [excitation @ 485 nm and emission @ 525 nm] for a total time of 60 seconds. 25 μL of 8× agonist (800 μM sodium succinate) was added to each well using the flexstation after establishing the baseline for 20 sec, Measurement—Max-Min over 60 sec. Using the above protocol results obtained are tabulate din the Table 1 below: […]
Background: Calcium flux is commonly read through the fluorescence of an indicator in the cells.
Regarding `O=C(O)Cc1cccc(Oc2ccc(Oc3cccc4ccncc34)cc2C(F)(F)F)c1` [Compound A-1, 2-[3-[4-(8-isoquinolyloxy)-2-(trifluoromethyl)phenoxy]phenyl]acetic acid], the IC50 is below 5 µM.
Under `O=C(O)Cc1cccc(Oc2ccc(Oc3cccc4cnncc34)cc2C(F)(F)F)c1` [Compound A-2, 2-[3-[4-phthalazin-5-yloxy-2-(trifluoromethyl)phenoxy]phenyl]acetic acid] stands below 5 µM; under `O=C(O)CCc1cccc(Oc2ccc(Oc3cccc4cnncc34)cc2C(F)(F)F)c1` [Compound A-3, 3-[3-[4-phthalazin-5-yloxy-2-(trifluoromethyl)phenoxy]phenyl]propanoic acid], below 5 µM; under `O=C(O)Cc1cccc(Oc2ccc(Oc3ccc(Cl)c4cnncc34)cc2C(F)(F)F)c1` [Compound A-4, 2-[3-[4-(8-chlorophthalazin-5-yl)oxy-2-(trifluoromethyl)phenoxy]phenyl]acetic acid], below 5 µM.
For `Cn1ncc2cccc(Oc3ccc(Oc4cccc(CC(=O)O)c4)c(C(F)(F)F)c3)c21` [Compound A-5, 2-[3-[4-(1-methylindazol-7-yl)oxy-2-(trifluoromethyl)phenoxy]phenyl]acetic acid], the half-maximal inhibitory concentration (IC50) is below 5 µM.
For `O=C(O)Cc1cccc(Oc2ccc(Oc3ccc4ncccc4c3)cc2C(F)(F)F)c1` [Compound A-6, 2-[3-[4-(6-quinolyloxy)-2-(trifluoromethyl)phenoxy]phenyl]acetic acid], the IC50 is 5 to 10 µM.
Next, `O=C(O)CCc1cccc(Oc2ccc(Oc3cccn4ccnc34)cc2C(F)(F)F)c1` [Compound A-7, 3-[3-[4-imidazo[1,2-a]pyridin-8-yloxy-2-(trifluoromethyl)phenoxy]phenyl]propanoic acid]: above 10 µM; `O=C(O)Cc1cccc(Oc2ccc(Oc3ccc(F)c4ccncc34)cc2C(F)(F)F)c1` [Compound A-8, 2-[3-[4-[(5-fluoro-8-isoquinolyl)oxy]-2-(trifluoromethyl)phenoxy]phenyl]acetic acid]: below 5 µM; `O=C(O)Cc1cccc(Oc2ccc(Oc3cccc4ncncc34)cc2C(F)(F)F)c1` [Compound A-9, 2-[3-[4-quinazolin-5-yloxy-2-(trifluoromethyl)phenoxy]phenyl]acetic acid]: below 5 µM.
Under `CN1CCc2cccc(Oc3ccc(Oc4cccc(CCC(=O)O)c4)c(C(F)(F)F)c3)c2C1` [Compound A-10, 3-[3-[4-[(2-methyl-3,4-dihydro-1H-isoquinolin-8-yl)oxy]-2-(trifluoromethyl)phenoxy]phenyl]propanoic acid] stands above 10 µM.
Under `O=C(O)CCc1cccc(Oc2ccc(Oc3cccc4c3OCCO4)cc2C(F)(F)F)c1` [Compound A-11, 3-[3-[4-(2,3-dihydro-1,4-benzodioxin-5-yloxy)-2-(trifluoromethyl)phenoxy]phenyl]propanoic acid] stands above 10 µM.
As for `O=C(O)CCc1cccc(Oc2ccc(Oc3cccc4cccnc34)cc2C(F)(F)F)c1` [Compound A-12, 3-[3-[4-(8-quinolyloxy)-2-(trifluoromethyl)phenoxy]phenyl]propanoic acid], the concentration for half-maximal inhibition (IC50) was above 10 µM.
Next, `O=C(O)CCc1cccc(Oc2ccc(Oc3ccnc4ccccc34)cc2C(F)(F)F)c1` [Compound A-13, 3-[3-[4-(4-quinolyloxy)-2-(trifluoromethyl)phenoxy]phenyl]propanoic acid]: above 10 µM; `O=C(O)CCc1cccc(Oc2ccc(Oc3cccc4cnccc34)cc2C(F)(F)F)c1` [Compound A-14, 3-[3-[4-(5-isoquinolyloxy)-2-(trifluoromethyl)phenoxy]phenyl]propanoic acid]: below 5 µM; `Cn1cc2c(Oc3ccc(Oc4cccc(CC(=O)O)c4)c(C(F)(F)F)c3)cccc2n1` [Compound A-15, 2-[3-[4-(2-methylindazol-4-yl)oxy-2-(trifluoromethyl)phenoxy]phenyl]acetic acid]: below 5 µM.
Under `Cn1ncc2c(Oc3ccc(Oc4cccc(CC(=O)O)c4)c(C(F)(F)F)c3)cccc21` [Compound A-16, 2-[3-[4-(1-methylindazol-4-yl)oxy-2-(trifluoromethyl)phenoxy]phenyl]acetic acid] stands below 5 µM; under `O=C(O)Cc1cccc(Oc2ccc(Oc3cccc4nncn34)cc2C(F)(F)F)c1` [Compound A-17, 2-[3-[4-([1,2,4]triazolo[4,3-a]pyridin-5-yloxy)-2-(trifluoromethyl)phenoxy]phenyl]acetic acid], above 10 µM.
On to `O=C(O)Cc1cccc(Oc2ccc(Oc3ccc4c(c3)NCCO4)cc2C(F)(F)F)c1` [Compound A-18, 2-[3-[4-(3,4-dihydro-2H-1,4-benzoxazin-6-yloxy)-2-(trifluoromethyl)phenoxy]phenyl]acetic acid], for which the IC50 was below 5 µM.
Under `O=C(O)Cc1cccc(Oc2ccc(Oc3ccn4cnnc4c3)cc2C(F)(F)F)c1` [Compound A-19, 2-[3-[4-([1,2,4]triazolo[4,3-a]pyridin-7-yloxy)-2-(trifluoromethyl)phenoxy]phenyl]acetic acid] stands above 10 µM; under `O=C(O)Cc1cccc(Oc2ccc(Oc3ccc4ccn(C5COC5)c4c3)cc2C(F)(F)F)c1` [Compound A-20, 2-[3-[4-[1-(oxetan-3-yl)indol-6-yl]oxy-2-(trifluoromethyl)phenoxy]phenyl]acetic acid], below 5 µM.
Under `O=C(O)Cc1cccc(Oc2ccc(Oc3ccc4cnn(C5COC5)c4c3)cc2C(F)(F)F)c1` [Compound A-21, 2-[3-[4-[1-(oxetan-3-yl)indazol-6-yl]oxy-2-(trifluoromethyl)phenoxy]phenyl]acetic acid] stands below 5 µM; under `O=C(O)Cc1cccc(Oc2ccc(Oc3ccc4cn(C5COC5)nc4c3)cc2C(F)(F)F)c1` [Compound A-22, 2-[3-[4-[2-(oxetan-3-yl)indazol-6-yl]oxy-2-(trifluoromethyl)phenoxy]phenyl]acetic acid], below 5 µM.
Under `O=C(O)Cc1cccc(Oc2ccc(Oc3ccc4c(cnn4C4COC4)c3)cc2C(F)(F)F)c1` [Compound A-23, 2-[3-[4-[1-(oxetan-3-yl)indazol-5-yl]oxy-2-(trifluoromethyl)phenoxy]phenyl]acetic acid] stands above 10 µM; under `O=C(O)Cc1cccc(Oc2ccc(Oc3ccc4nn(C5COC5)cc4c3)cc2C(F)(F)F)c1` [Compound A-24, 2-[3-[4-[2-(oxetan-3-yl)indazol-5-yl]oxy-2-(trifluoromethyl)phenoxy]phenyl]acetic acid], above 10 µM.
On to `O=C(O)Cc1cccc(Oc2ccc(Oc3ccc4nnn(C5COC5)c4c3)cc2C(F)(F)F)c1` [Compound A-25, 2-[3-[4-[3-(oxetan-3-yl)benzotriazol-5-yl]oxy-2-(trifluoromethyl)phenoxy]phenyl]acetic acid], for which the IC50 is below 5 µM.
Next, `O=C(O)Cc1cccc(Oc2ccc(Oc3ccc4ncn(C5COC5)c4c3)cc2C(F)(F)F)c1` [Compound A-26, 2-[3-[4-[3-(oxetan-3-yl)benzimidazol-5-yl]oxy-2-(trifluoromethyl)phenoxy]phenyl]acetic acid]: below 5 µM; `Cc1nc2ccc(Oc3ccc(Oc4cccc(CC(=O)O)c4)c(C(F)(F)F)c3)cc2n1C1COC1` [Compound A-27, 2-[3-[4-[2-methyl-3-(oxetan-3-yl)benzimidazol-5-yl]oxy-2-(trifluoromethyl)phenoxy]phenyl]acetic acid]: below 5 µM.
Next, `Cc1nc2ccc(Oc3ccc(Oc4cccc(CC(=O)O)c4)c(C(F)F)c3)cc2n1C1COC1` [Compound A-28, 2-[3-[2-(difluoromethyl)-4-[2-methyl-3-(oxetan-3-yl)benzimidazol-5-yl]oxy-phenoxy]phenyl]acetic acid]: below 5 µM; `O=C(O)Cc1cccc(Oc2ccc(Oc3cnc4ncn(C5COC5)c4c3)cc2C(F)(F)F)c1` [Compound A-29, 2-[3-[4-[1-(oxetan-3-yl)imidazo[4,5-b]pyridin-6-yl]oxy-2-(trifluoromethyl)phenoxy]phenyl]acetic acid]: above 10 µM; `O=C(O)Cc1cccc(Oc2ccc(Oc3ccc4ccn(C5COC5)c4n3)cc2C(F)(F)F)c1` [Compound A-30, 2-[3-[4-[1-(oxetan-3-yl)pyrrolo[2,3-b]pyridin-6-yl]oxy-2-(trifluoromethyl)phenoxy]phenyl]acetic acid]: above 10 µM.
